We go through two molecules from patent publication US20260355318A1, “MOLECULAR MACHINES FOR TREATMENT OF CANCER, FUNGAL INFECTIONS, OR BACTERIAL INFECTIONS” (priority 2022, published 2026).

The subject of one data set is C. albicans. Briefly: Development of resistance / cross-resistance in C. albicans (serial passage, single-step). It is filed as cell-based. Conditions: Candida albicans, read-out: MIC of MM in antifungal-resistant C. albicans. The method, then:
FIG. 3: Evaluation of the development of resistance to MMs in C. albicans. For the stepwise resistance assessment by serial passage (left), C. albicans cell suspensions were treated with increasing concentrations (0.3125-160 μM) of different MMs (8 mM stock in DMSO) and then irradiated with […] light (87.6 J cm^−2). The irradiated cell suspensions were then inoculated in MOPS-buffered RPMI 1640 (pH 7.0, Sigma, MO, USA), and the tubes were incubated at 30 ° C for 48 h. […] Cells able to grow at 0.5×MIC of each MM were collected by centrifugation (5,000×g, 5 min), resuspended and re-challenged with a range of MM concentrations and irradiated with 405 nm light (87.6 J cm^−2). The procedure was repeated for a total of 20 consecutive cycles. […] Irradiated cells were then inoculated in YPD and incubated at 30 °C. However, MM-resistant colonies could not be recovered even after 14 days of incubation. Created with Biorender.com.
A modified version of the broth microdilution serial passage method was used to assess the development of resistance to visible-light-activated MMs in C. albicans (Kapoor et al., 2019). C. albicans cell suspensions were prepared and irradiated as previously described for the determination of MM MIC. Cells were then inoculated into buffered RPMI 1640 and incubated at 30 ° C for 48 h. Cells able to grow at 0.5×MIC of MM were centrifuged (5,000×g, 5 min), resuspended, rechallenged with different MM concentrations, and irradiated with 405-nm light (87.6 J cm^−2). The procedure was repeated for 20 consecutive cycles. The antifungals AMB, CAS, and FLC were processed similarly, except that light was omitted, and used as controls.

Data set [1] in a line: Estimated rotation rate after light activation. Conditions: based on known motors with similar core skeletons.
For the next data set, the system named is A. baumannii. In words: MIC, A. baumannii. It is filed as cell-based, Acinetobacter baumannii. Conditions: for MIC of MM: A. baumannii, 405 nm light; for MIC: Acinetobacter baumannii, read-out: MIC of MM. In a few lines:
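Cell suspensions were exposed to compound at 0.3125-40 μM for 30 min in the dark, with agitation, at 30 or 37 °C depending on strain. Each sample was then irradiated with 405 nm light at 146 mW cm^−2 for 5 min (43.8 J cm^−2), inoculated into MHB and incubated overnight. MIC was read as the lowest concentration without visible growth, alongside non-irradiated controls.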

The test system of another data set is S. epidermidis. In words: MIC, S. epidermidis. The format is cell-based. Conditions: Staphylococcus epidermidis, read-out: MIC of MM. The method, then: The appropriate volume of an MM stock at 8 mM necessary to achieve a concentration ranging from 0.3125 to 40 μM was pipetted into a 2 mL microcentrifuge tube to which 1 mL of cell suspension prepared as previously described was added. Corresponding negative controls (DMSO only) were prepared in the same way. The mixture was gently mixed by pipetting and incubated in the dark at 30 or 37 ° C, depending on the strain, for 30 min with agitation (220 rpm). Afterward, MM- or DMSO-treated cells were dispensed in one well of a 24-well plate positioned in the center of the light beam (405 nm LED Light, Prizmatix, UHP—F-5-405) placed at the appropriate distance necessary to achieve the desired light intensity of 304 mW cm-2, 146 mW cm2 or 87 mW cm2, as measured with a handheld digital power meter console coupled to an S415C thermal power sensor head (Thorlabs, Newton, MA, USA). The temperature during irradiation was monitored using a thermocouple probe (Model SC-TT-K-30-36-PP; Omega Engineering, Inc., Stanford, CT, USA). Samples were agitated during irradiation. Dark controls were prepared as previously described except that no irradiation was provided. […]

Data set [2] concerns A. baumannii, E. coli, P. aeruginosa, S. aureus. In words: Resistance development / cross-resistance in bacteria (serial passaging). The format is cell-based. The method, then: Isolation of MM-resistant mutants of E. coli, A. baumannii, P. aeruginosa, and S. aureus was attempted by irradiating cell suspensions treated with 4×MIC of the different MMs for 5 min at 146 mW cm^−2 (43.8 J cm^−2). No visible colonies could be obtained for any of the strains tested.
For resistance development by sequential passaging (Ling et al., 2015), A. baumannii, E. coli, P. aeruginosa, and S. aureus cells in exponential phase were collected and processed as described for MIC determination. Cells were incubated at 37 ° C for 24 h after which they were inspected for growth. Cells able to grow at 0.5×MIC were collected and re-challenged with a range of MM concentrations and then irradiated. The antibiotics ciprofloxacin and gentamicin (for Gram-negatives) or ciprofloxacin and tobramycin (for S. aureus) were used as controls.

Another data set has as its system E. coli. In words: Tetracycline uptake. The format is cell-based, Escherichia coli. The settings on record: 0.5×MIC MM pre-treatment, vs DMSO. The method, then:
The ability of pre-treatment with subinhibitory concentrations of MMs to potentiate antibiotic killing was further evaluated by monitoring the fluorescence of tetracycline uptake. […] Irradiated cell suspensions were then collected, and tetracycline (128 μg mL^−1 final concentration) was added. A volume of 100 μL per well of tetracycline amended cell suspension was transferred to a black 96-well plate and fluorescence was read every 5 min for 60 min at room temperature in a microplate reader (Ex: 405 nm, Em: 535 nm) (BioTek Instruments Inc, Winooski, VT, USA). Results were expressed as RFU corrected for fluorescence in the absence of cells.

The subject of data set [3] is normal human dermal fibroblasts (NHDFs). In words: Toxicity to NHDF (CellTiter-Glo). The format is cell-based. Conditions: 5 min, 405 nm light 146 mW cm^−2, 5 min, read-out: IC50 (NHDF viability). The method, then:
Biocompatibility of MM with primary NHDF and HEK293T cells was assessed using the CellTiter-Glo® Luminescent Cell Viability Assay (Promega), per the manufacturer's instructions. The MM concentrations that reduced cell viability by 50% (IC50) were identified and the therapeutic index was calculated as the ratio between the IC50 and the MIC at a light intensity of 146 mW cm^−2.

The mark [4] stands for this setting: Escherichia coli, read-out: MIC of MM in antibiotic-resistant E. coli.
[5] abbreviates: Staphylococcus aureus, S. aureus Gentamycin^R, one line per passage 1-20, read-out: MIC of MM in antibiotic-resistant S. aureus.

pIC50: −log10 of the molar value. Read-outs that look alike come from different tables or passages of the source.

What is called MIC is the lowest concentration found to suppress growth. Usually pIC50 stands for −log10 of the IC50, conventionally taken in molar units.

Take `C[C@@H]1Cc2ccc3ccccc3c2/C1=C1\c2ccccc2Sc2cc(NCCN)ccc21` (racemic) [MM 6, N^1-(9-(2-methyl-2,3-dihydro-1H-cyclopenta[a]naphthalen-1-ylidene)-9H-thioxanthen-3-yl)ethane-1,2-diamine]: the minimal inhibitory concentration (MIC) with C. albicans amounted to 2.5 µM; in the data set with A. baumannii, 2.5 µM; in the data set with S. epidermidis it was 0.078 µM; in data set [2] (setting [4]), 0.5 µM; in data set [2] (setting [5]) it was 0.125 µM. In addition, the “estimated rotation rate after light activation” value in data set [1] was 3 MHz. The “MIC of MM” value in the data set with A. baumannii was 2.5 µM. Moreover, the intracellular tetracycline fluorescence result with E. coli was “substantial increase in intracellular tetracycline fluorescence”. Besides, the negative logarithm of the IC50 (pIC50) in data set [3] was 5.00.
As for `C[C@@H]1Cc2ccc3ccccc3c2/C1=C1\c2ccccc2Sc2cc(NCCN(C)C)ccc21` [MM 1, N^1N^1-dimethyl-N^2-(9-(2-methyl-2,3-dihydro-1H-cyclopenta[a]naphthalen-1-ylidene)-9H-thioxanthen-3-yl) ethane-1,2-diamine], the MIC in the data set on C. albicans was 1.25 µM; in the data set on A. baumannii it was 2.5 µM; with S. epidermidis, 0.078 µM; in data set [2] (setting [4]), 4 µM; in data set [2] (setting [5]) it was 0.125 µM. Further, the “estimated rotation rate after light activation” value in data set [1] was 3 MHz. The “MIC of MM” value with A. baumannii is 2.5 µM. In the data set on E. coli, the intracellular tetracycline fluorescence result is given as “substantial increase in intracellular tetracycline fluorescence”. In addition, in data set [3], the pIC50 is 5.30.
